Test [1] relates to IL-1beta release from a mouse microglial cell line. Nature of the test: Interleukin-1 beta microglial cell assay. Type of test: cell-based. Conditions: LPS and IFN gamma stimulation, 24 hours, read-out: inhibition of IL-1beta induction, EC50. The protocol:
This assay measures the release of IL-1β from a mouse microglial cell line following an inflammatory challenge with LPS and interferon-gamma. The ability of test articles to inhibit microglial cell activation and IL-1beta release is determined by co-incubation of the test article with the inflammatory challenge. Cytokine release is measured using a mouse IL-1β ELISA and cell toxicity is determined using Cell Tracker Green (a fluorescent dye that measures cell viability).
Mouse microglial cells were seeded in poly-D-lysine coated 96-well plates at a density of 10,000 cells/well and allowed to attach for 24 hours. Cells were stimulated by addition of LPS (10 μg/ml) and IFN gamma (10 ng/ml) in the presence or absence of test article. The cells were then incubated for 24 hours at 37° C., after which time the media was removed and used for cytokine determination as described below.
Viability of mouse microglial cells after exposure to the test article was determined using a fluorescent viability dye, Cell Tracker Green. Cell Tracker Green was used at a working concentration of 5 μM in 1× HBSS. Cells were washed once with HBSS (200 μl/well) and 100 μl Cell Tracker Green was added to each well. Cells were then incubated at 37° C. for 30 minutes, after which time the Cell Tracker was removed and the cells were washed once with HBSS (200 μl/well). 100 μl fresh HBSS was added to each well and the plate was read on a Fluoroskan plate reader using an excitation wavelength of 485 nm and an emission wavelength of 538 nm.
1. The IL-1β capture antibody was reconstituted in 1 ml of PBS to give a final concentration of 720 μg/ml, and the working concentration was 4 μg/ml. For coating one 96-well plate (at 100 μl/well) 56 μl of the 720 μg/ml stock was diluted into 10 ml of PBS. 2. The IL-1β standards were reconstituted in 0.5 ml of Reagent Diluent (70 ng/ml). For a high standard of 1 ng/ml (2 wells at 100 μl each+enough for series dilution) 7.1 μl of the 70 ng/ml standard were diluted into 0.5 ml of Reagent Diluent 3. The IL-1β detection antibody was reconstituted in 1 ml of Reagent Diluent to give a final concentration of 18 μg/ml and the working concentration is 100 ng/ml. For one 96-well plate (at 100 μl/well) 56 μl of the 18 μg/ml stock was diluted into 10 ml of Reagent Diluent.
1. The Costar EIA Hi-binding plate was coated with capture antibody at 4 μg/ml. Each well was coated with 100 μl, and the plate was sealed and incubated overnight at room temperature.
2. Each well was aspirated and washed 3× with Wash Buffer. Each well was filled to the top, dispensed, and any remaining buffer was removed by inverting the plate and gently blotting against clean paper towels.
3. Non-specific binding sites were blocked by adding 300 μl of Blocking Buffer to each well, and after sealing incubating for at least 1 hour at room temperature.
5. 100 μl of either standard or sample were added in each well of the capture-coated and pre-blocked plate. The plate was sealed and incubated for 2 hours at room temperature, followed with washing as in step 2.
6. 100 μl of the detection antibody ([…]) were added to each well.
7. The plate was sealed and incubated at room temperature for 2 hours, followed with washing as in step 2.
8. 100 μl of the working dilution of Streptavidin-HRP was added, and the plate was sealed and incubated in the dark for 20 minutes at room temperature, followed with washing as in Step 2.
9. The fresh Substrate Solution was prepared by mixing Color Reagent A (H2O2) and Color Reagent B (Tetramethylbenzidine) in a 1:1 ratio. 100 μl of this Substrate Solution mixture was added to each well and the plate was incubated in the dark for 20 minutes at room temperature. 10. 50 μl of Stop Solution was added to each well, mixing was ensured by gently tapping. 11. Each plate was read with the Spectramax once at 450 nm. Results

Test [2] concerns ELAM (E-selectin) expression in endothelial cells. Nature of the test: E-selectin (ELAM) cell inflammation assay. Type of test: cell-based. Conditions: LPS and IL-1β stimulation, read-out: reduction of expression of ELAM, EC50. How it is done: Endothelial-Leukocyte Adhesion Molecule (ELAM), also known as E-selectin, is expressed on the surface of endothelial cells. In this assay, lipopolysaccharide (LPS) and IL-1β are used to stimulate the expression of ELAM; test agents are tested for their abilities to reduce this expression, in accordance with studies showing that reduction of leukocyte adhesion to endothelial cell surface is associated with decreased cellular damage (e.g., Takada, M., Et al., Transplantation 64: 1520-25, 1997; Steinberg, J. B., et al., J. Heart Lung Trans. 13:306-313, 1994).
Endothelial cells may be selected from any of a number of sources and cultured according to methods known in the art; including, for example, coronary artery endothelial cells, human brain microvascular endothelial cells (HBMEC; Hess, D.C., et al., Neurosci. Left. 213(1): 37-40, 1996), or lung endothelial cells. Cells are conveniently cultured in 96-well plates. Cells are stimulated by adding a solution to each well containing 10 μg/ml LPS and 100 pg/ml IL-1β for 6 hours in the presence of test agent (specific concentrations and time may be adjusted depending on the cell type). Treatment buffer is removed and replaced with pre-warmed Fixing Solution® (100 μl/well) for 25 minutes at room temperature. Cells are then washed 3×, then incubated with Blocking Buffer (PBS+2% FBS) for 25 minutes at room temperature. Blocking Buffer containing Monoclonal E-Selectin Antibody (1:750, Sigma Catalog #S-9555) is added to each well. Plates are sealed and stored at 4° overnight. Plates are washed 4× with 160 μL Blocking Buffer per well. Second Antibody-HRP diluted 1:5000 in Blocking Buffer is then added (100 μL/well), and plates are incubated at room temperature (protected from light) for two hours. Plates are then washed 4× with Blocking Buffer before addition of 100 μL of ABTS Substrate solution at room temperature (Zymed, Catalog #00-2024). Wells are allowed to develop for 35 minutes, before measurement at 402 nm in a Fluoroskan® Reader with shake program for 10 seconds. Positive results are recorded as a decrease in ELAM concentration in tested wells, as compared to control wells.

Structures are written as SMILES.

In the case of `CCOC(=O)C1(CSc2nc3ccccc3[nH]2)OC(=O)C(OCC)=C1Sc1nc2ccccc2n1CC` (stereo not shown) [2-(1H-Benzoimidazol-2-ylsulfanylmethyl)-4-ethoxy-3-(1-ethyl-1H-benzoimidazol-2-ylsulfanyl)-5-oxo-2,5-dihydro-furan-2-carboxylic acid ethyl ester], the results for the EC50 in test [1] and in test [2] were not above 20 µM and not above 30 µM, respectively. On to `CCOC(=O)C1(C[S+]([O-])c2nc3ccccc3s2)OC(=O)C(O)=C1Sc1nc2ccccc2s1` (stereo not shown) [2-(Benzothiazole-2-sulfinylmethyl)-3-(benzothiazol-2-ylsulfanyl)-4-hydroxy-5-oxo-2,5-dihydro-furan-2-carboxylic acid ethyl ester], for which the EC50 (commonly the concentration that produces a half-maximal response) in test [1] is not above 20 µM; in test [2], not above 30 µM.

Consider `CCOC(=O)C1(CSCc2ccc(Cl)cc2Cl)OC(=O)C(O)=C1SCc1ccc(Cl)cc1Cl` (stereo not shown) [3-(2,4-Dichloro-benzylsulfanyl)-2-(2,4-dichloro-benzylsulfanylmethyl)-4-hydroxy-5-oxo-2,5-dihydro-furan-2-carboxylic acid ethyl ester], for which the EC50 is not above 20 µM in test [1] and not above 30 µM in test [2].

Consider `CCOC(=O)C1(CSc2ccc(F)cc2Cl)OC(=O)C(O)=C1Sc1ccc(F)cc1Cl` (stereo not shown) [3-(2-Chloro-4-fluoro-phenylsulfanyl)-2-(2-chloro-4-fluoro-phenylsulfanylmethyl)-4-hydroxy-5-oxo-2,5-dihydro-furan-2-carboxylic acid ethyl ester], for which the EC50 in test [1] was not above 20 µM; in test [2] it was not above 30 µM.

For `CCOC(=O)C1(CSCc2c(F)cccc2Cl)OC(=O)C(O)=C1SCc1c(F)cccc1Cl` (stereo not shown) [3-(2-Chloro-6-fluoro-benzylsulfanyl)-2-(2-chloro-6-fluoro-benzylsulfanylmethyl)-4-hydroxy-5-oxo-2,5-dihydro-furan-2-carboxylic acid ethyl ester], the EC50 in test [1] is not above 20 µM; in test [2], not above 30 µM. Consider `CCOC(=O)C1(C(=O)OCC)OC(=O)C(O)=C1SCc1ccc(F)cc1` [3-(4-Fluoro-benzylsulfanyl)-4-hydroxy-5-oxo-5H-furan-2,2-dicarboxylic acid diethyl ester], for which the EC50 is not above 20 µM in test [1] and not above 30 µM in test [2].

Take `COC(=O)C1(CSc2nc3ccccc3s2)OC(=O)C(O)=C1Sc1nc2ccccc2o1` (stereo not shown) [3-(Benzooxazol-2-ylsulfanyl)-2-(benzothiazol-2-ylsulfanylmethyl)-4-hydroxy-5-oxo-2,5-dihydro-furan-2-carboxylic acid methyl ester]: the EC50 in test [1] is not above 20 µM.

With `CCOC(=O)C1(CSc2nc3ccccc3[se]2)OC(=O)C(O)=C1Sc1nc2ccccc2[se]1` (stereo not shown) [3-(Benzoselenazol-2-ylsulfanyl)-2-(benzoselenazol-2-ylsulfanylmethyl)-4-hydroxy-5-oxo-2,5-dihydro-furan-2-carboxylic acid ethyl ester], the EC50 in test [1] was not above 20 µM; in test [2] it was not above 30 µM. For `CCOC(=O)C1(CSc2nc3ccccc3s2)OC(=O)C(O)=C1Sc1nc2ccccc2s1` (stereo not shown) [3-(Benzothiazol-2-ylsulfanyl)-2-(benzothiazol-2-ylsulfanylmethyl)-4-hydroxy-5-oxo-2,5-dihydro-furan-2-carboxylic acid ethyl ester], the concentration for a half-maximal effect (EC50) was not above 20 µM in test [1] and not above 30 µM in test [2]. Regarding `CC(C)OC(=O)C1(CSc2nc3ccccc3s2)OC(=O)C(O)=C1Sc1nc2ccccc2s1` (stereo not shown) [3-(Benzothiazol-2-ylsulfanyl)-2-(benzothiazol-2-ylsulfanylmethyl)-4-hydroxy-5-oxo-2,5-dihydro-furan-2-carboxylic acid isopropyl ester], the values for the EC50 in test [1] and in test [2] were not above 20 µM and not above 30 µM, respectively. For the compound `CCOC(=O)C1(C[S+]([O-])Cc2ccco2)OC(=O)C(O)=C1[S+]([O-])Cc1ccco1` (stereo not shown) [3-(Furan-2-ylmethanesulfinyl)-2-(furan-2-ylmethanesulfinylmethyl)-4-hydroxy-5-oxo-2,5-dihydro-furan-2-carboxylic acid ethyl ester], the EC50 was not above 20 µM in test [1] and not above 30 µM in test [2]. In the case of `CCOC(=O)C1(CSCc2ccco2)OC(=O)C(O)=C1SCc1ccco1` (stereo not shown) [3-(Furan-2-ylmethylsulfanyl)-2-(furan-2-ylmethylsulfanylmethyl)-4-hydroxy-5-oxo-2,5-dihydro-furan-2-carboxylic acid ethyl ester], the EC50 in test [1] was not above 20 µM. As for `CCCCSCC1(C(=O)OCC)OC(=O)C(O)=C1SCCCC` (stereo not shown) [3-Butylsulfanyl-2-butylsulfanylmethyl-4-hydroxy-5-oxo-2,5-dihydro-furan-2-carboxylic acid ethyl ester], in test [1], the EC50 is not above 20 µM.

As to `CCOC(=O)C1(CSCc2ccco2)OC(=O)C(OC(=O)C(C)(C)C)=C1SCc1ccco1` (stereo not shown) [4-(2,2-Dimethyl-propionyloxy)-3-(furan-2-ylmethylsulfanyl)-2-(furan-2-ylmethylsulfanylmethyl)-5-oxo-2,5-dihydro-furan-2-carboxylic acid ethyl ester], the EC50 in test [1] is not above 20 µM. Consider `O=C1OC(CO)(CSc2nc3ccccc3o2)C(Sc2nc3ccccc3o2)=C1O` (stereo not shown) [4-(Benzooxazol-2-ylsulfanyl)-5-(benzooxazol-2-ylsulfanylmethyl)-3-hydroxy-5-hydroxymethyl-5H-furan-2-one], for which the EC50 in test [1] is not above 20 µM. On to `CCOC(=O)C1(CSCc2ccc(OC)cc2)OC(=O)C(O)=C1SCc1ccc(OC)cc1` (stereo not shown) [4-Hydroxy-3-(4-methoxy-benzylsulfanyl)-2-(4-methoxy-benzylsulfanylmethyl)-5-oxo-2,5-dihydro-furan-2-carboxylic acid ethyl ester], for which the EC50 in test [1] is not above 20 µM. Take `CCOC(=O)C1(CSc2nccc(C)n2)OC(=O)C(O)=C1Sc1nccc(C)n1` (stereo not shown) [4-Hydroxy-3-(4-methyl-pyrimidin-2-ylsulfanyl)-2-(4-methyl-pyrimidin-2-ylsulfanylmethyl)-5-oxo-2,5-dihydro-furan-2-carboxylic acid ethyl ester]: the EC50 in test [1] is not above 20 µM. As for `CCOC(=O)C1(CSc2ncccn2)OC(=O)C(O)=C1Sc1ncccn1` (stereo not shown) [4-Hydroxy-5-oxo-3-(pyrimidin-2-ylsulfanyl)-2-(pyrimidin-2-ylsulfanylmethyl)-2,5-dihydro-furan-2-carboxylic acid ethyl ester], the EC50 in test [1] was not above 20 µM.

The values are drawn from US7985771B2, “Furanone derivatives” (Monsanto Technology LLC, priority 2002, dated 2011).
